In this assay the test system is BDF1 mice, P388 leukemia ip, median survival T/C. Briefly: NCI In Vivo Anticancer Drug Screen. Data for tumor model P388 Leukemia (intraperitoneal) in B6D2F1 (BDF1) mice. The note with it: endpoint: median survival time, higher = longer survival. The method in brief: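 Antitumour effect was judged in vivo: survival in drug-treated mice, normalised to that of vehicle-dosed controls, gives the reported T/C.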

Where [1] appears, read: dose: 12.5 mg/kg/injection, schedule: Q01DX001 (ip), vehicle: Klucel (hydroxypropylcellulose) (HPC).
The mark [2] stands for this setting: dose: 25.0 mg/kg/injection, schedule: Q01DX001 (ip), vehicle: Klucel (hydroxypropylcellulose) (HPC).
The mark [3] stands for this setting: dose: 50.0 mg/kg/injection, schedule: Q01DX001 (ip), vehicle: Klucel (hydroxypropylcellulose) (HPC).
[4] abbreviates: dose: 100.0 mg/kg/injection, schedule: Q01DX009 (ip), vehicle: Klucel (hydroxypropylcellulose) (HPC).
The mark [5] stands for this setting: dose: 100.0 mg/kg/injection, schedule: Q04DX003 (ip), vehicle: Klucel (hydroxypropylcellulose) (HPC).
Setting [6] is: dose: 200.0 mg/kg/injection, schedule: Q01DX009 (ip), vehicle: Klucel (hydroxypropylcellulose) (HPC).
[7] abbreviates: dose: 200.0 mg/kg/injection, schedule: Q04DX003 (ip), vehicle: Klucel (hydroxypropylcellulose) (HPC).
[8] abbreviates: dose: 400.0 mg/kg/injection, schedule: Q01DX009 (ip), vehicle: Klucel (hydroxypropylcellulose) (HPC).
Setting [9] is: dose: 400.0 mg/kg/injection, schedule: Q04DX003 (ip), vehicle: Klucel (hydroxypropylcellulose) (HPC).
The mark [10] stands for this setting: dose: 25.0 mg/kg/injection, schedule: Q01DX009 (ip), vehicle: saline with Tween-80.
[11] abbreviates: dose: 25.0 mg/kg/injection, schedule: Q04DX003 (ip), vehicle: saline with Tween-80.
Setting [12] is: dose: 50.0 mg/kg/injection, schedule: Q01DX009 (ip), vehicle: saline with Tween-80.
Where [13] appears, read: dose: 100.0 mg/kg/injection, schedule: Q01DX009 (ip), vehicle: saline with Tween-80.
The mark [14] stands for this setting: dose: 50.0 mg/kg/injection, schedule: Q01DX009 (ip), vehicle: Klucel (hydroxypropylcellulose) (HPC).
Where [15] appears, read: dose: 25.0 mg/kg/injection, schedule: Q01DX009 (ip), vehicle: Klucel (hydroxypropylcellulose) (HPC).
[16] abbreviates: dose: 100.0 mg/kg/injection, schedule: Q04DX003 (ip), vehicle: saline with Tween-80.
[17] abbreviates: dose: 200.0 mg/kg/injection, schedule: Q04DX003 (ip), vehicle: saline with Tween-80.

“And” between values parts separate entries of the source, which are not always exact repeats. Equal entries are not always repeated. Inconclusive results and toxic doses are left out.

As for `CSc1c(C)[nH]c2ccc([N+](=O)[O-])cc12`, the T/C by setting is: (dose: 25.0 mg/kg/injection, schedule: Q01DX001 (ip), vehicle: saline with Tween-80) 95 % of control; (dose: 50.0 mg/kg/injection, schedule: Q01DX001 (ip), vehicle: saline with Tween-80) 111 % of control; (dose: 100.0 mg/kg/injection, schedule: Q01DX001 (ip), vehicle: saline with Tween-80) 100 % of control.

On to `CC(C)(C)c1ccc(S(=O)[O][Sn]([CH3])([CH3])[O]S(=O)c2ccc(C(C)(C)C)cc2)cc1` (centres undefined), for which the T/C under setting [1] is 110 % of control, the T/C under setting [2] was 113 % of control and the T/C under setting [3] is 116 % of control.

Take `CN(C)c1ccc(Cc2ccc(N(C)C)nc2)cn1`: the T/C reads like this: under setting [4], 100 % of control; under setting [5], 95 % of control; under setting [6], 110 % of control; under setting [7], 100 % of control; under setting [8], 100 % of control; under setting [9], 95 % of control.

For `CN(C)CCOc1cccc(OCCN(C)C)n1`, the T/C was 100 % of control under setting [10]; 87 % of control under setting [11]; 95 % of control under setting [12]; 91 % of control (dose: 50.0 mg/kg/injection, schedule: Q04DX003 (ip), vehicle: saline with Tween-80).

For the molecule `CN(Cc1cnc2nc(N)nc(N)c2n1)c1ccc(C(=O)NC(CCC(=O)O)C(=O)O)cc1Br` (centres undefined), the T/C is 231 % of control (dose: 0.35 mg/kg/injection, schedule: Q01DX009 (ip), vehicle: saline); 259 % of control (dose: 0.7 mg/kg/injection, schedule: Q01DX009 (ip), vehicle: saline); 250 % of control (dose: 13.2 mg/kg/injection, schedule: Q04DX003 (ip), vehicle: saline with Tween-80).

Consider `CCCCCCCCCCCCCCCC(=O)N1CCC(N2CCCCC2)CC1`, for which the T/C is 109 % of control (dose: 200.0 mg/kg/injection, schedule: Q01DX001 (ip), vehicle: Klucel (hydroxypropylcellulose) (HPC)) and 90 % of control (dose: 400.0 mg/kg/injection, schedule: Q01DX001 (ip), vehicle: Klucel (hydroxypropylcellulose) (HPC)).

As for `O=S(=O)([O-])NC1CCCCC1.O=S(=O)([O-])NC1CCCCC1.[Hg+2].[Hg+2].[Hg+2].[O-2].[O-2]`, the T/C by setting is: (dose: 0.5 mg/kg/injection, schedule: Q01DX009 (ip), vehicle: Klucel (hydroxypropylcellulose) (HPC)) 99 % of control; (dose: 1.0 mg/kg/injection, schedule: Q01DX009 (ip), vehicle: Klucel (hydroxypropylcellulose) (HPC)) 111 % of control; (dose: 2.0 mg/kg/injection, schedule: Q01DX009 (ip), vehicle: Klucel (hydroxypropylcellulose) (HPC)) 111 % of control; (dose: 4.0 mg/kg/injection, schedule: Q01DX009 (ip), vehicle: Klucel (hydroxypropylcellulose) (HPC)) 121 % of control; (dose: 8.0 mg/kg/injection, schedule: Q01DX009 (ip), vehicle: Klucel (hydroxypropylcellulose) (HPC)) 101 % of control.

For the molecule `C[Si](C)(C)O/C=C1\CCCCC1=O`, the T/C is, setting by setting: under setting [10], 110 % of control; under setting [13], 117 % of control.

As for `CCCCCCCC[N+]12CC[N+](CCCCCCCC)(CC1)CC2`, the T/C runs as follows: (dose: 3.13 mg/kg/injection, schedule: Q01DX009 (ip), vehicle: saline) 106 % of control; (dose: 6.25 mg/kg/injection, schedule: Q01DX009 (ip), vehicle: saline) 103 % of control.

Regarding `N=C(N)c1ccc(/C=C/c2ccc(C(=N)N)cc2)cc1`, the T/C runs as follows: (dose: 12.5 mg/kg/injection, schedule: Q01DX009 (ip), vehicle: Klucel (hydroxypropylcellulose) (HPC)) 118 % of control; (dose: 16.5 mg/kg/injection, schedule: Q01DX009 (ip), vehicle: Klucel (hydroxypropylcellulose) (HPC)) 116 % of control and 118 % of control; (dose: 37.5 mg/kg/injection, schedule: Q01DX009 (ip), vehicle: Klucel (hydroxypropylcellulose) (HPC)) 150 % of control.

With `Nc1nc(N)c2cc(S(=O)(=O)c3ccc4ccccc4c3)ccc2n1`, the T/C is, setting by setting: under setting [14], 90 % of control; under setting [4], 109 % of control; under setting [5], 90 % of control; under setting [6], 95 % of control; under setting [7], 104 % of control; under setting [9], 104 % of control.

With `O=C(CCl)Nc1cc(Cl)ccc1N1CCCC1`, the T/C under setting [1] was 118 % of control; the T/C (dose: 12.5 mg/kg/injection, schedule: Q04DX003 (ip), vehicle: Klucel (hydroxypropylcellulose) (HPC)) was 90 % of control; the T/C under setting [2] is 104 % of control; the T/C under setting [15] is 95 % of control; the T/C (dose: 25.0 mg/kg/injection, schedule: Q04DX003 (ip), vehicle: Klucel (hydroxypropylcellulose) (HPC)) is 104 % of control; the T/C under setting [3] is 104 % of control. Also, the T/C is, setting by setting: under setting [14], 90 % of control; (dose: 50.0 mg/kg/injection, schedule: Q04DX003 (ip), vehicle: Klucel (hydroxypropylcellulose) (HPC)) 104 % of control; (dose: 75.0 mg/kg/injection, schedule: Q01DX001 (ip), vehicle: Klucel (hydroxypropylcellulose) (HPC)) 95 % of control; (dose: 115.0 mg/kg/injection, schedule: Q01DX001 (ip), vehicle: Klucel (hydroxypropylcellulose) (HPC)) 95 % of control.

As for `CC(=O)Oc1cc2c[n+](C)c3c4cc(OC(C)=O)c(OC(C)=O)cc4ccc3c2cc1OC(C)=O`, the T/C runs as follows: (dose: 20.0 mg/kg/injection, schedule: Q01DX009 (ip), vehicle: saline) 95 % of control; (dose: 40.0 mg/kg/injection, schedule: Q01DX009 (ip), vehicle: saline) 104 % of control; (dose: 80.0 mg/kg/injection, schedule: Q01DX009 (ip), vehicle: saline) 109 % of control; (dose: 120.0 mg/kg/injection, schedule: Q01DX009 (ip), vehicle: saline) 118 % of control.

`CC(C)=NN1C(=O)c2ccccc2C1=O`: the T/C reads like this: under setting [10], 101 % of control; under setting [12], 101 % of control; under setting [13], 100 % of control.

Consider `Nc1nc(-c2ccccc2)cc2ccccc12`, for which the T/C (dose: 12.5 mg/kg/injection, schedule: Q04DX003 (ip), vehicle: saline with Tween-80) is 100 % of control and the T/C under setting [11] is 97 % of control.

On to `Cn1c2ccccc2c(=O)c2ccc(Cl)cc21`, for which the T/C runs as follows: under setting [16], 105 % of control; under setting [17], 105 % of control; (dose: 400.0 mg/kg/injection, schedule: Q04DX003 (ip), vehicle: saline with Tween-80) 100 % of control.

As for `CC1(CCBr)NC(=O)NC1=O` (centres undefined), the T/C under setting [4] was 110 % of control; the T/C under setting [5] is 100 % of control; the T/C under setting [6] is 105 % of control; the T/C under setting [7] was 115 % of control; the T/C under setting [8] is 105 % of control; the T/C under setting [9] was 100 % of control.

In the case of `Cc1cc(C)c(N)c(C)c1N`, the T/C by setting is: under setting [15], 118 % of control; under setting [14], 95 % of control; (dose: 100.0 mg/kg/injection, schedule: Q04DX003 (ip), vehicle: other) 105 % of control; (dose: 200.0 mg/kg/injection, schedule: Q04DX003 (ip), vehicle: other) 100 % of control; (dose: 400.0 mg/kg/injection, schedule: Q04DX003 (ip), vehicle: other) 105 % of control.

On to `Cc1ncc([N+](=O)[O-])n1CCN=[N+]=[N-]`, for which the T/C reads like this: under setting [16], 104 % of control; under setting [17], 123 % of control.

With `CCN(CC)C(=S)Oc1cc(C)nc(N2CCCC2)n1`, the T/C is 95 % of control (dose: 50.0 mg/kg/injection, schedule: Q01DX005 (ip), vehicle: saline with Tween-80); 101 % of control (dose: 100.0 mg/kg/injection, schedule: Q01DX005 (ip), vehicle: saline with Tween-80); 97 % of control (dose: 200.0 mg/kg/injection, schedule: Q01DX005 (ip), vehicle: saline with Tween-80).

Regarding `Nc1cc2nnc(-c3ccccc3)c(-c3ccccc3)n2n1`, the T/C is 89 % of control (dose: 100.0 mg/kg/injection, schedule: Q04DX002 (ip), vehicle: saline with Tween-80) and 86 % of control (dose: 400.0 mg/kg/injection, schedule: Q04DX002 (ip), vehicle: saline with Tween-80).

Values taken from PubChem BioAssay AID328 (DTP/NCI, 2004).
